Data as given in patent US7196063B1, “Peptides and pharmaceutical compositions comprising same” (NST NeuroSurvival Technologies Ltd., priority 1999, dated 2007).
Entries after “also recorded” stand apart in the source; their conditions may differ. Read-outs that look alike come from different tables or passages of the source.

Legend:
HUVEC cells [1] = experiment: Cell-ELISA: binding of anti β2GPI antibodies to HUVEC cells; type: cell-based, Human
Method: Human β2GPI is a plasma phospholipid binding protein that is required for the binding of autoantibodies in sera from patients with APS to cardiolipin (McNeil H P et al., 1990 Proc. Natl. Acad. Sci. 87, 4120–4124). […] Anti β2GPI antibodies are present in sera of APS patients. […] For cell-ELISA tests, HUVEC cells (at 40,000/well), were plated on 96 well tissue culture plates (Nunc) in 200 μl of the culture medium, and allowed to grow for 18–22 hours. Following 2 washes with Hepes buffer (10 mM Hepes pH 8, 140 mM NaCl) and 5 min incubation with the culture medium, the wells were incubated for 3 hr with 10% of normal plasma in PBS (as a source of β2 GPI protein), supplemented with 1/500 of goat anti-human Apolipoprotein-H (β2 GPI) (Affinity biologicals, PA). Parallel control wells were incubated with 10% of normal plasma from Ilex. Serial dilutions of NST500 compounds were prepared in plasma/PBS. Washes and development were as described for anti CL ELISA.
As presented in FIG. 5B, in the presence of plasma and absence of NST500, HUVEC cells supported binding of anti β2GPI to their surface. However, displacement of anti β2GPI by NST500 compounds in this system occurred in a concentration dependent manner, similar to the results obtained with CL.

apoptotic HeLa cells [2] = experiment: Modified APTT test with apoptotic HeLa cells as pro-coagulant surface; type: cell-based
Method: Apoptotic and control HeLa cells were prepared as described for the FACS analysis. Equal numbers of apoptotic or control non-treated cells (5×10^4) in a volume of […], were mixed with 100 μl of normal plasma, incubated for 1 min at 37° C. in a bath and then calcified by addition of 100 μl of 25 mM CaCl2, and clotting time was measured. Inhibition of the pro-coagulant activity of the apoptotic cells by NST500 compounds was tested following pre-incubation of apoptotic cells for 20 min. at room temperature with increased concentrations of the different NST 500 compounds.
The results can be seen in FIG. 4B.

cardiolipin = test system: cardiolipin
Source text: The antiphospholipid antibody syndrom (APS) is a thrombophilic condition, characterized by a panel of antibodies that recognize anionic phospholipid-protein cofactor complexes. The antiphospholipid antibodies lupus anticoagulant and anticardiolipin, (present in high concentrations in SLE patients), are associated with several medical disorders including artherial and venous thrombosis, and recurrent pregnancy loss (Rand J H et al., 1998, Blood. 92, 1652–1660). […] Noncellular negatively charged phospholipid coated surface (cardiolipin) were chosen as a target for binding.
CL, (Diphosphatidylglycerol, c-1649, Sigma), prepared at 50 μg/ml in ethanol, was added to a 96 well plate (100 μl/well) using Immunolon 4 plates (Dynatech, Chantilly, Va.) and incubated for 16–20 hr for evaporation of ethanol. As control, wells were coated with ethanol only. The coated plates were washed 3 times with 100 μl of blocking buffer (PBS containing 0.3% gelatin (Sigma) and 1 mM EDTA) to block non specific binding. A 5 min incubation time was used between each wash. Normal plasma (Ilex, Italy, 84670-11) and plasma derived from SLE patients (either from Gradipore, Australia, LAHP-1, or from Biopool, Ventura, Calif.) were prepared according to the producer's instruction. The plasma was diluted 1/10 in the blocking buffer and was added to the CL and ethanol coated wells. […] Following 3 hr incubation, the plates were washed twice with PBS/BSA buffer (0.4% bovine serum albumine (BSA) in PBS). For detection of anti cardiolipin binding property of the tested plasma, the plates were incubated with a 1/10000 dilution of Peroxidase-conjugated affinity purified Goat anti-human IgG (Jackson Immunoresearch lab.) in PBS/BSA buffer for 1 hour. The plates were then washed 3 times with PBS/BSA buffer, and color reaction was developed by incubation with 100 ul of 0-phenylenedi-amine (OPD) dihydrochloride (Sigma p-7288) at a concentration of 0.4 mg/ml in 0.05 M phosphate citrate buffer, pH 5.0 supplemented with 4 ul of 30% hydrogen peroxide (Aldrich) for 10 ml mixture. To detect the level of NST500 compounds that were bound to CL, parallel wells were incubated with streptavidin conugated to OPD (SA-OPD, Jackson Immunoresearch lab.), that specifically recognize the biotinylated NST 500 compounds. The resulting colour changes were recorded at 405 nm using a Bio Tek Elx800 Eliza reader.

apoptotic HeLa cells [3] = details: 250 μM; FACS
Method: Detection of binding to apoptotic HeLa cells was performed according to the following procedure: Cells were plated on tissue culture plates at a density of 5×10^6 cells/10 cm dish, and grown in their normal medium at 37° C. for 18 hr. The medium was replaced with a medium containing 2% FCS and 500 μM of dopamine. Eighteen hours later, floating cells that were identified as advanced apoptotic cells were collected and transferred to a 50 ml tube. To evaluate the level of apoptosis in the cultures, aliquots of 10^5 cells from the cultures were plated on 48 wells plate and stained with Hoechst 33342 dye (Molecular Probes) at a concentration of 1 mg/ml for 20 min (as described above). Non-treated cells served as control. For collecting the non-treated cells, the medium of the culture was aspirated and discarded, the cells were rinsed with growing medium and 2 ml of medium were added to the culture dish. The cells were detached from the culture dish using a cell scraper and separated to single cells by passage through a syringe with a 18G needle.
The reactions were incubated at room temperature for 40 minutes and then 400 μl of TBS was added and cells were collected by centrifugation at 3000×g for 3 minutes. Cells were washed in 1 ml of TBS and centrifuged as before and detecting of the bound compound was performed using 100 μl of TBS containing streptavidin conjugated to fluorescein (FITC) (016-090-084 from Jackson ImmunoResearch lab. Inc.). Incubation was for 15 minutes at room temperature in the dark. Thereafter, 400 μl of TBS was added and cells were centrifuged and washed again with 1 ml of TBS as before, re-suspended in 400 μl of TBS and then taken for FACS analysis. The FACS analysis was performed on Beckton-Dickinson cell sorter, using lysis II software. Excitation was at 488 nm and emission for FITC detection was at 535 nm and for PI detection at 585 nm.

HUVEC cells [4] = experiment: Thrombin generation by HUVEC cells; type: cell-based, Human
Source text: In vivo, vascular endothelial cells are known to catalyze the formation of thrombin, due to expression of PS on their plasma membrane, at which pro-coagulant complexes are assembled (Van Hardee W L et al., 1994, Biochem J. 302, 305–312). Endothelial cells (EC) play an active role in determining the pro-coagulant/anti-coagulant balance in the vascular system (Gimborne M A et al., 1995, Ann. N. Y. Acad Sci 748, 122–132). Perturbed endothelial cells dramatically increase their pro-coagulant state. […] (FIG. 4D). When HUVEC cells (1.5×10^5) were incubated with the S-2366 substrate, thrombin generation was evident after a lag time of 12.5 minutes, which reflects the time required to assemble a functional complex on the HUVEC surface.
The effect of NST516 compound on HUVEC mediated-thrombin generation was studied.

HUVEC cells [5] = experiment: Binding to endothelial HUVEC cells by FACS analysis; type: cell-based, Human; details: 250 μM
Method: Binding detection was done using flow cytometric analysis to populations of HUVEC cells.
HUVEC (CC-2517, obtained from Clonetics, Walkersville, Md.) were grown on tissue culture flasks in Endothelial cell medium (EGM-2 Bulletkit, CC 3162, Clonetics). Mid-confluent cultures were harvested using Trypsine/EDTA solution (CC-5012, Clonetics). The cells were rinsed twice with TBS containing 2% BSA and kept on ice. Samples of 10^6 cells were tested for binding.
Cells were washed in 1 ml of TBS-BSA and centrifuged as before and then suspended in 100 μl of TBS-BSA containing streptavidin conjugated to fluorescein (FITC) for detection of the bound biotinylated compound. […] Thereafter, 400 μl of TBS-BSA were added and cells were entrifuged and re-suspended in 400 μl of TBS and taken for FACS analysis.

arterial thrombosis = details: intravenous administration; carotid artery injury model; cited from earlier work
apoptotic hepatocytes = type: in vivo, mice; details: data not shown
Method: Massive hepatic apoptosis can be induced within 1–2 hr in mice following intravenous injection of anti-Fas antibody (Ogasawara J. et al., 1993, Nature, 364, 806–809). […] Five-weeks-old male BALB/c mice were injected intravenously with 10 μg/animal of purified hamster anti-Fas mAb (Jo2, PharMingen, San Diego, Calif.) using the model described by Ogasawara et. al. (Nature, 1993, 364, 806–809). […] Injections were performed at different time intervals between 5 min–2 hr after antibody treatment. […] All animals were killed 2 hr after administration of antibody followed by organ removal. Heart, lung and liver were collected. Liver were sectioned transversely across the mid-portion of each lobe; organs were fixed in phosphate-buffered formalin for histological and immunohisto-chemical analyses.
Formalin fixed paraffin-embedded tissues were sectioned (5 μm) for staining with Hematoxylin/Eosin or other techniques. Endogenous peroxidase activity was blocked by incubation with 3% H2O2.
After washing with PBS, staining was developed with 3,3-diaminobenzidine tetrahydrochloride (DAB), and counterstained with Hematoxylin.
Liver sections from different lobes were used for detection of stained apoptotic cells compared to normal cells. Using light microscopy (×400), twenty fields of stained cells were evaluated. A ratio between the number of stained apoptotic hepatocytes versus stained normal hepatocytes in the field was defined. The stained cell's score (%) corresponds to the mean of the values for the twenty evaluated fields.
The percentage of apoptotic cells in the fields was estimated by evaluating parallel sections stained with Hematoxylin/Eosin. Analysis was performed blindly, since the pathologist performing the histological evaluation was unaware of the assignment of mice to the treatment or control group.
To quantitate the microscopic examination of the pharmacokinetics studies, the number of stained cells from 20 microscopic fields was counted.

[6] = within 5 minutes; rabbits; intravenous injection; cited from earlier work

| Substance | blocking of binding of anti β2 GPI antibodies to HUVEC cells (HUVEC cells [1]) | inhibiting activity relative to NST513 (HUVEC cells [1]) | effect on clotting time of apoptotic cells (apoptotic HeLa cells [2]; 2.5–2.2 μM) | increase of clotting time of apoptotic cells (factor) (apoptotic HeLa cells [2]; 2.5–2.2 μM) | clotting time of apoptotic cells (apoptotic HeLa cells [2]; apoptotic cells alone 50 seconds, control cells 80 seconds) | potency relative to NST513 in inhibiting binding of SLE plasma to CL (cardiolipin) | displacement of plasma derived from SLE patients from cardiolipin (cardiolipin; 1 μM) | lowering of binding of plasma derived from SLE patients to CL (factor) (cardiolipin; 1 μM) | displacement of plasma derived from SLE patients from cardiolipin (cardiolipin; 10 μM) | inhibition of binding of plasma derived from SLE patients to cardiolipin, dose response (cardiolipin; 1–10 μM) | binding to apoptotic HeLa cells relative to NST513 (apoptotic HeLa cells [3]) | delay in thrombin generation (HUVEC cells [4]) | potency in inhibiting thrombin generation compared to NST513 (HUVEC cells [4]) | thrombin generation by HUVEC cells, dose response (HUVEC cells [4]) | fraction of HUVEC cells labeled (HUVEC cells [5]) | higher FITC labeled HUVEC cells as compared to NST513 (HUVEC cells [5]) | increase in labeled HUVEC cells as compared to background of control cells without compound (HUVEC cells [5]) | inhibition of arterial thrombosis (arterial thrombosis) | staining of apoptotic cells, exogenously added (apoptotic hepatocytes) | clearance [6] |
| --- | --- | --- | --- | --- | --- | --- | --- | --- | --- | --- | --- | --- | --- | --- | --- | --- | --- | --- | --- | --- |
| Myristate-KKVSFFCKNKEKKC-K(SEQ ID NO:2) (biotin) [NST516] | dramatic and significant ability to block binding | two times better | marked and dose dependent inhibition of clotting time; also recorded: dose-dependent effect | 4.5 times | 225 s | 10 times | marked displacement | 2 | almost complete displacement | marked displacement of IgG | 3.5 fold | 5 min | more potent compound in inhibiting thrombin generation | dose dependence inhibition of thrombin generation | 83% | 70% | 8 fold |  |  |  |
| Annexin V: 320 amino acid protein of the annexin family with Ca2+-dependent binding to anionic phospholipid membranes |  |  |  |  |  |  |  |  |  |  |  |  |  |  |  |  |  | effectively achieved | same pattern of staining | 90% |
